Values quoted from earlier work in patent US8017623B2 (Trinity Laboratories, Inc., priority 2008, dated 2011).
Structures can show the parent of a compound that is named as a salt. Where two headings read alike, the source gives them in different places.

What was measured:
[1] = for peak plasma dextromethorphan concentration (mean) / peak plasma dextromethorphan concentrations (range): chronic oral dosing of 120 mg daily, divided doses
females = conditions: for mean plasma bromide concentration at the end of the treatment: females, three menstrual cycles
[2] = rat, normal
thyroid = conditions: rats, normal chloride intake
thyroid gland = conditions: rats fed diets containing 4800 or 19200 ppm; from 3 days, constant over 12 weeks

Q: What does the source list for COc1ccc2c(c1)[C@]13CCCC[C@@H]1[C@H](C2)N(C)CC3 [Dextromethorphan Hydrobromide]?
A: solubility (at 20° C.): 1.5%; solubility (at 85° C.): 25%; solubility (below 20° C.): sparingly soluble

Q: Which results are given for COc1ccc2c(c1)[C@]13CCCC[C@@H]1[C@H](C2)N(C)CC3 [Dextromethorphan, 3-methoxy-17-methyl-9a, 13a, 14 a-morphinan]?
A: conjugated dextrorphan excreted ([1]; 24 hour period): up to 30%; dose excreted unchanged in the urine ([1]; 24 hour period): less than 2.5%; peak plasma dextromethorphan concentration (mean) ([1]; extensive metabolizers): 2.4 ng/mL; peak plasma dextromethorphan concentrations (range) ([1]; extensive metabolizers): 0.5 to 5.9 ng/mL; peak plasma dextromethorphan concentration (mean) ([1]; poor metabolizers): 207 ng/mL; peak plasma dextromethorphan concentrations (range) ([1]; poor metabolizers): 182 to 231 ng/mL; peak concentration in serum ([1]; single 20 mg oral dose): 1.8 ng/mL; time of peak serum concentration ([1]; single 20 mg oral dose): 2.5 h

Q: What does the source list for Br [bromide]?
A: quantitative analysis of the electroencephalogram (EEG) (females; females receiving 9 mg Br/kg/day): only a marginal effect; serum thyroxine, free thyroxine, triiodothyronine, thyrotropine and thyroxine-binding globulin (females; females, 0, 4 and 9 mg Br/kg/day): In none of the three groups were significant changes observed; mean plasma bromide concentration at the end of the treatment (females; 4 mg Br/kg/day): 3.22 mmol/L; mean plasma bromide concentration at the end of the treatment (females; 9 mg Br/kg/day): 7.99 mmol/L; half-life [2]: 72 h; NOAEL based on effects on the thyroid (thyroid): 240 ppm bromide; NOAEL based on effects on the thyroid (thyroid; equivalent dose): 12 mg bromide/kg bw/day

Q: With [Br-].[Na+] [sodium bromide] as the molecule, how does the thyroxine concentrations (thyroid gland) read?
A: The thyroxine concentrations was “significantly decreased”.

Q: And the effect on reproduction (rats; 1200 ppm)?
A: The effect on reproduction was “no effects on reproduction were observed”.

Q: What about the effect on reproduction (rats; 4800 ppm) of the same molecule?
A: Its effect on reproduction is “fertility and viability of the offspring were reduced”.

Q: And the effect on reproduction (rats; 19200 ppm (highest dose level))?
A: The effect on reproduction was “complete infertility”.

Q: What about the “NOAEL based on effects on the thyroid” value (thyroid) of the same molecule?
A: Its value is 300 ppm sodium bromide.

Q: And the “medical history, physical examination, haematology, clinical chemistry and urine analyses” value (healthy volunteers; 4 or 9 mg Br/kg/day, except for incidental nausea)?
A: The value was “no changes were observed”.

Q: And the “serum thyroxine and triiodothyronine at the end of the study compared to pre-administration values” (healthy volunteers; females receiving 9 mg Br/kg/day, concentrations remained within normal limits)?
A: The value was “significant increase”.

Q: And the “mean plasma bromide concentration at the end of treatment” value (healthy volunteers; females, 4 mg Br/kg/day oral, three full cycles)?
A: Its value is 3.05 mmol/L.

Q: What about the “mean plasma bromide concentration at the end of treatment” value (healthy volunteers; females, 9 mg Br/kg/day oral, three full cycles) of the same molecule?
A: The value was 4.93 mmol/L.

Q: And the “mean plasma bromide concentration at the end of treatment” value (healthy volunteers; males, 4 mg Br/kg/day oral, 12 weeks)?
A: Its value is 2.14 mmol/L.

Q: And the “mean plasma bromide concentration at the end of treatment” value (healthy volunteers; males, 9 mg Br/kg/day oral, 12 weeks)?
A: Its value is 4.30 mmol/L.
